Test results published in PubChem BioAssay (NCI).
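Cultured in 96-well plates, cells were exposed to test compound for 48 hours across five concentrations. Definition used: TGI = concentration required for complete inhibition of growth.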

Tests used:
Assay in all cases: growth of human tumour cells (NCI), 48 h
OVCAR-5 ovarian = system: OVCAR-5 ovarian
MOLT-4 leukemia = system: MOLT-4 leukemia
786-0 renal = system: 786-0 renal
TK-10 renal = system: TK-10 renal
HCT-15 colon = system: HCT-15 colon
HT29 colon = system: HT29 colon
SF-295 CNS = system: SF-295 CNS
HOP-92 NSCLC = system: HOP-92 NSCLC
UACC-62 melanoma = system: UACC-62 melanoma
SK-MEL-2 melanoma = system: SK-MEL-2 melanoma

Measured: TGI

CC1(C)CCN2C(=O)C34CCCC3CC21S4 (centres undefined)
> 100 µM: all assays above

COc1ccc(C2c3cc4c(cc3OC(NNc3ccccc3)C2C)OCO4)cc1 (centres undefined)
51.7 µM: HT29 colon
98.1 µM: SK-MEL-2 melanoma
67.9 µM: HOP-92 NSCLC
59.5 µM: UACC-62 melanoma
51.8 µM: 786-0 renal
> 100 µM: all other assays above

C#CC[C@@H]1C(=O)N(Cc2ccc(OC)cc2)[C@@H](C(C)C)C(=O)N1Cc1ccc(OC)cc1
34.7 µM: MOLT-4 leukemia
55.1 µM: HT29 colon | SK-MEL-2 melanoma
> 100 µM: all other assays above

CC(=O)OI1NC(=O)c2ccccc21
> 100 µM: all assays above

COc1ccc2[nH]c3c(c2c1)[C@H](c1ccccc1)C[C@@H]1C(=O)N(c2ccccc2)C(=O)[C@H]31
31.5 µM: MOLT-4 leukemia
76.3 µM: HOP-92 NSCLC
35.3 µM: 786-0 renal
not listed: HT29 colon
> 100 µM: all other assays above

CCc1n[nH]c(=O)n1CCCCCCCCn1c(CC)n[nH]c1=O
> 100 µM: all assays above

N#CC(NNC(=O)Cc1ccccc1)c1cccc(O)c1 (centres undefined)
> 100 µM: all assays above

CSc1nc(=S)[nH]c2c1c(C)nn2-c1ccccc1
84.4 µM: SF-295 CNS
35.7 µM: HOP-92 NSCLC
68.5 µM: SK-MEL-2 melanoma
88.1 µM: 786-0 renal
45.3 µM: MOLT-4 leukemia
35.3 µM: UACC-62 melanoma
> 100 µM: all other assays above
